Measurements: patent US10526581B2, “Modulation of cardiac stem-progenitor cell differentiation, assays and uses thereof” (priority 2013, dated 2020)

Tests used:
mouse heart [1] = test: ISO injury in CM-recombined MerCreMer-ZEG and MerCreMer:RYP mice (lineage tracing of new CMs); format: in vivo; conditions: 28 days after ISO
Description: BrdU labeling and Ki67 expression by itself cannot establish whether the new CMs are generated by the reported division of pre-existing adult CMs or by the activation and ensuing differentiation of a stem-progenitor cell compartment. To specifically address this issue, we traced the cell lineage of the new CMs. We generated double-transgenic mice (MerCreMer-ZEG) (Hsieh et al., 2007; Loffredo et al., 2011) in which, upon tamoxifen administration, β-galactosidase (β-Gal) is replaced by enhanced green fluorescent protein (GFP) exclusively in cardiac cells which have already activated the Myh6 gene (and, therefore, the transgene carrying the cre recombinase gene) which are either post-mitotic CMs or amplifying cells already committed to the CM lineage (i.e., immature myocytes/myocyte precursors).
In tamoxifen-naïve MerCreMer-ZEG mice, 99±0.2% of the CMs express β-Gal and are negative for GFP (the leakage of the Myh6-Cre construct in these animals is ˜0.2%). Tamoxifen correctly switched β-Gal to GFP in CMs (FIG. 15A-C). […] In this setting, if new CMs (BrdU^pos) originated from division of pre-existing CMs they should be more GFP^pos and the ratio between GFP^pos and β-Gal^pos CMs should remain unchanged at ˜80/20. If instead, the new CMs originate from non-CM cells, they should be β-Gal^pos and produce a “dilution” of GFP^pos CMs with a decrease of the GFP^pos/β-Gal^pos CM ratio (FIG. 15A).
In mice, ISO injection caused the same type of myocardial damage and LV dysfunction shown in rats, resulting in c-kit^poseCSC activation, CM regeneration and recovery of cardiac function (FIG. 22). […] These numbers match the CM loss produced by ISO administration (FIG. 22). In contrast, we detected very few newly generated, BrdU^posβ-Gal^pos, CMs (0.15±0.05%) in saline-treated CTRL mice (FIG. 15E). […] This discrepancy might be due to the different injury models used. In contrast to coronary ligation, although ISO kills a large number of CMs, because it leaves a patent coronary circulation the eCSCs are spared and provides a more physiologic test for the endogenous reparative potential of the adult heart (Ellison et al., 2007b). Furthermore, during the two-week administration of tamoxifen for Cre induction it would be expected that some eCSCs have committed to the myogenic lineage and activated the Myh6 gene with recombination of the transgene and generation of […], as reported by Dong et al. (2012).
Finally, we dissociated to single cells CMs from the hearts of double transgenic MerCreMer:RYP mice obtained by crossing MerCreMer with R26R-EYFP (RYP) mice (Qian et al., 2012), in which the CMs were labeled with the enhanced yellow fluorescent protein (EYFP) upon tamoxifen injection. […]

mouse heart [2] = test: ISO injury in Lenti-c-kit/Cre recombined RYP mice (c-kit^pos eCSC fate map); format: in vivo; conditions: 28 days after ISO
[3] = system: rats with ISO+5-FU cardiomyopathy; test: hemodynamic measurements (LV catheterization) after tail vein cell injection in ISO+5-FU cardiomyopathy; format: in vivo, rat; conditions: (84 d) 3 months
[4] = system: adult myocytes isolated from Tg^c-kit/GFP mice; test: ISO in vitro on adult myocytes isolated from Tg^c-kit/GFP mice; format: cell-based, mouse; conditions: ISO 10 nM, cultured for 48 hrs
rats after ISO damage = conditions: at 28 days
adult rat myocardium = conditions: single high dose of ISO; cited from earlier work

CC(C)NCC(O)c1ccc(O)c(O)c1 (centres unmarked) [ISO, isoproterenol]
BrdU^pos CMs (mouse heart [1]; MerCreMer/ZEG mice): 9±2% | GFP^pos CMs (mouse heart [1]; MerCreMer/ZEG mice): 73.5±3.5% | β-Gal^pos CMs (mouse heart [1]; MerCreMer/ZEG mice): 26.5±2% | YFP-marked endogenous CMs (mouse heart [1]; MerCreMer:RYP mice, apex (and sub-endocardium)): ~72% | newly-formed (BrdU^pos) CMs (mouse heart [2]): 9.5±2% | YFP^pos cells in the unfixed CM preparation (FACS) (mouse heart [2]; LV apex): 8.3±1% | EYFP positive CMs, % of total BrdU^pos CMs (mouse heart [2]; LV): 43±3% | EYFP positive CMs, % of total BrdU^pos CMs (mouse heart [2]; apex): 74±7% | YFP^pos cells in the unfixed CM preparation (FACS) (mouse heart [2]; total LV): 2.9±0.5% | LVDevP [3]: 98.9 ± 10.6 mmHg | LVEDP [3]: 2.2 ± 2.3 mmHg | dP/dt+ [3]: 8344 ± 1294 mmHg/s | dP/dt− [3]: 7936 ± 1072 mmHg/s | ANP expression (fetal myocyte gene program) [4]: increased ANP expression | c-kit/GFP transcription in adult myocytes [4]: unable to activate | mortality (rats after ISO damage): 0 of 10 | LV CMs killed (adult rat myocardium): 8-10%
